Data from PMC11882969 (Nature Communications, 2025).
Where “and” joins values, the source holds several entries; their conditions need not be identical. Equal values may be shown once. Read-outs that look alike come from different tables or passages of the source. Marks after values point to notes of the source that are not given here.

Legend:
[1] = target: T1, CB1 (rCB1) (Rattus norvegicus, UniProt P20272); experiment: Single-point radioligand displacement screen; type: binding
[2] = target: T2, hCB1 (Homo sapiens, UniProt P21554); experiment: Lance Ultra cAMP accumulation assay, CHO cells; type: cell-based; set-up: expressed in transfected cells; conditions: for cAMP assay signal, concentration-response point: replicates, sheet FigureS2a;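 for all read-outs here: human CB1R stably expressed in CHO cells, ligands co-incubated with forskolin at room temperature, read-out is lowering of forskolin-stimulated cAMP accumulation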
Experimental: The inhibition of forskolin-stimulated cAMP accumulation assays was carried out using PerkinElmer’s Lance Ultra cAMP kit following the manufacturer’s protocol. In brief, CHO cells stably expressing human CB1R (provided by the lab of Laura Bohn) were harvested by incubation with Versene (ThermoFisher Scientific, Waltham, MA) for 10 min, washed once with Hank’s Balanced Salt Solution, and resuspended in stimulation buffer at ~200 cells/μL density. The ligands at eight different concentrations (0.001-10,000 nM) in stimulation buffer (5 μL) containing forskolin (2 μM final concentration) were added to a 384-well plate followed by the cell suspension (5 μL; ~1000 cells/well). The plate was incubated for 30 min at room temperature. Eu-cAMP tracer (5 μL) and Ulight-anti-cAMP (5 μL) working solutions were then added to each well, and the plate was incubated at room temperature for an additional 60 min. Results were measured on a Perkin-Elmer EnVision plate reader. The EC50 values were determined by nonlinear regression analysis using Graphpad Prism 9 and are expressed as the mean of three experiments, each performed in triplicate.

[3] = target: T2, hCB1; experiment: bioSensAll ebBRET signaling profiling, hCB1; type: cell-based; set-up: host or cells: HEK293SL cells, transient PEI transfection; conditions: for Barr2+GRK2 hCB1 response: Barr2+GRK2 biosensor; for Gi1 hCB1 / GoB hCB1: single replicate values, FigS6a; for Emax: normalized to CP-55,940
[4] = target: T1, CB1 (rCB1); experiment: Radioligand competition binding, [3H]-CP-55,940, rat brain membranes

T1 sequence (P20272 whole entry): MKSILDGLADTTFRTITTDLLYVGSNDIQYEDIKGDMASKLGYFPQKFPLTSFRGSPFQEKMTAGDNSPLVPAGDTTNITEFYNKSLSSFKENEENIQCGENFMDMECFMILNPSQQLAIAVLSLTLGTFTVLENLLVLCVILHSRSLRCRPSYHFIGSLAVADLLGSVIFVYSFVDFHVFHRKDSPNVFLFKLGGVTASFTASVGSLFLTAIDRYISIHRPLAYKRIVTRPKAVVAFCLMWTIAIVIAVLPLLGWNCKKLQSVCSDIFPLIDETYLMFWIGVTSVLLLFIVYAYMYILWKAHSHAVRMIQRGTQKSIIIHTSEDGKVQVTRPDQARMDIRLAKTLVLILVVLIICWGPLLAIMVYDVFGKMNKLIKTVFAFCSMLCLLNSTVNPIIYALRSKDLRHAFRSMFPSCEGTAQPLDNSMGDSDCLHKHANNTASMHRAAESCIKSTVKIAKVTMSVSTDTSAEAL
T2 sequence (P21554 whole entry): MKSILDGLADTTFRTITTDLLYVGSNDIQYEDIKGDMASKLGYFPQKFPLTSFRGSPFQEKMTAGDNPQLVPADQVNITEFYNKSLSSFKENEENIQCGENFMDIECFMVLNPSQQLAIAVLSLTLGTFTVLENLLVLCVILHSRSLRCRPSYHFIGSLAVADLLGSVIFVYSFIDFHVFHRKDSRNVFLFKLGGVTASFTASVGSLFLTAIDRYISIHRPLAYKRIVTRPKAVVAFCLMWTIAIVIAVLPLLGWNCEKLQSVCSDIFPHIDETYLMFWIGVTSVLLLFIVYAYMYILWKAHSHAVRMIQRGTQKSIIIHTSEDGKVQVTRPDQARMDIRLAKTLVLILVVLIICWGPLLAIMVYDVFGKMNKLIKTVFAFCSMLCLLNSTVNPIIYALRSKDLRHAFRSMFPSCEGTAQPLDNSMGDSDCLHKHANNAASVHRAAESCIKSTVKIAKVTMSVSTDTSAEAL

Cn1nc(-c2nnc(C(C)(C)Oc3ccc(Cl)cc3)o2)c2ccccc2c1=O [‘0450]
% 1H-CP-55,940 displacement (mean) from single point screen ([1]; 10 µM, 1 µM or 300 nM by cell colour (not visible)): 80.28%
rep1_displacement ([1]; Figure 1c source data, replicate 1): 80.6
rep2_displacement ([1]; Figure 1c source data, replicate 2): 81.2
rep3_displacement ([1]; Figure 1c source data, replicate 3): 79
cAMP assay signal, concentration-response point ([2]; compound 0.01 nM): 0.002801 and 0.002457 and 0.003311
cAMP assay signal, concentration-response point ([2]; compound 0.1 nM): 0.004608* and 0.002375 and 0.002849
cAMP assay signal, concentration-response point ([2]; compound 1 nM): 0.002336 and 0.002132 and 0.002532
cAMP assay signal, concentration-response point ([2]; compound 10 nM): 0.002645 and 0.002538 and 0.002288
cAMP assay signal, concentration-response point ([2]; compound 100 nM): 0.002008 and 0.002532 and 0.002421
cAMP assay signal, concentration-response point ([2]; compound 1000 nM): 0.002545 and 0.002096 and 0.002506
cAMP assay signal, concentration-response point ([2]; compound 10000 nM): 0.001462 and 0.001302 and 0.001515
cAMP assay signal, concentration-response point ([2]; compound 100000 nM): 0.0002057* and 0.0001994* and 0.0002162*
agonism, inhibition of forskolin-stimulated cAMP ([2]; hCB1-expressing cells, in words): modest agonism
Barr2+GRK2 hCB1 response ([3]; Log [Compound] (M) -4.22186): 27.1048
Barr2+GRK2 hCB1 response ([3]; Log [Compound] (M) -4.63927): -24.5851
Barr2+GRK2 hCB1 response ([3]; Log [Compound] (M) -5.05788): -35.4335
Barr2+GRK2 hCB1 response ([3]; Log [Compound] (M) -5.47381): -53.9398
Barr2+GRK2 hCB1 response ([3]; Log [Compound] (M) -5.89285): -49.1537
Barr2+GRK2 hCB1 response ([3]; Log [Compound] (M) -6.31878): -46.282
Barr2+GRK2 hCB1 response ([3]; Log [Compound] (M) -6.72585): -46.9202
Barr2+GRK2 hCB1 response ([3]; Log [Compound] (M) -7.14267): -54.5779
Barr2+GRK2 hCB1 response ([3]; Log [Compound] (M) -7.55284): -56.4924
Barr2+GRK2 hCB1 response ([3]; Log [Compound] (M) -8): -48.8346
Barr2+GRK2 hCB1 response ([3]; Log [Compound] (M) -8.22186): -5.441
Barr2+GRK2 hCB1 response ([3]; Log [Compound] (M) -8.39794): -31.2856
Barr2+GRK2 hCB1 response ([3]; Log [Compound] (M) -8.68787): -55.2161
Barr2+GRK2 hCB1 response ([3]; Log [Compound] (M) -9.15521): -35.1145
Barr2+GRK2 hCB1 response ([3]; Log [Compound] (M) -9.61989): -47.5583
Barr2+GRK2 hCB1 response ([3]; Log [Compound] (M) -10.0969): -52.0253
Barr2+GRK2 hCB1 response ([3]; Log [Compound] (M) -10.5529): -34.4763
Barr2+GRK2 hCB1 response ([3]; Log [Compound] (M) -11.0177): -42.1341
Barr2+GRK2 hCB1 response ([3]; Log [Compound] (M) -11.4949): -48.5155
Barr2+GRK2 hCB1 response ([3]; Log [Compound] (M) -11.9208): -49.1537
Barr2+GRK2 hCB1 response ([3]; Log [Compound] (M) -12.3979): -55.5351
Barr2+GRK2 hCB1 response ([3]; Log [Compound] (M) -12.8861): -37.0289
Barr2+GRK2 hCB1 response ([3]; Log [Compound] (M) -13.3979): -10.8649
Gi1 hCB1 ([3]; Log [Compound] (M) -4.22186): 20.433
GoB hCB1 ([3]; Log [Compound] (M) -4.22186): 28.3973
Gi1 hCB1 ([3]; Log [Compound] (M) -4.63927): 13.3222
GoB hCB1 ([3]; Log [Compound] (M) -4.63927): 13.6053
Gi1 hCB1 ([3]; Log [Compound] (M) -5.05788): 9.41
GoB hCB1 ([3]; Log [Compound] (M) -5.05788): 19.1089
Gi1 hCB1 ([3]; Log [Compound] (M) -5.47381): 7.763
GoB hCB1 ([3]; Log [Compound] (M) -5.47381): 13.8657
Gi1 hCB1 ([3]; Log [Compound] (M) -5.89285): 5.34
GoB hCB1 ([3]; Log [Compound] (M) -5.89285): 8.258
Gi1 hCB1 ([3]; Log [Compound] (M) -6.31878): 2.791
GoB hCB1 ([3]; Log [Compound] (M) -6.31878): 3.397
Gi1 hCB1 ([3]; Log [Compound] (M) -6.72585): -1.469
GoB hCB1 ([3]; Log [Compound] (M) -6.72585): -0.5617
Gi1 hCB1 ([3]; Log [Compound] (M) -7.14267): -3.893
GoB hCB1 ([3]; Log [Compound] (M) -7.14267): -2.489
Gi1 hCB1 ([3]; Log [Compound] (M) -7.55284): -6.6323
GoB hCB1 ([3]; Log [Compound] (M) -7.55284): -6.586
Gi1 hCB1 ([3]; Log [Compound] (M) -8): -3.861
GoB hCB1 ([3]; Log [Compound] (M) -8): -8.513
Gi1 hCB1 ([3]; Log [Compound] (M) -8.22186): 0.6527
GoB hCB1 ([3]; Log [Compound] (M) -8.22186): -4.433
Gi1 hCB1 ([3]; Log [Compound] (M) -8.39794): -6.221
GoB hCB1 ([3]; Log [Compound] (M) -8.39794): -7.35
Gi1 hCB1 ([3]; Log [Compound] (M) -8.68787): -4.3993
GoB hCB1 ([3]; Log [Compound] (M) -8.68787): -5.892
Gi1 hCB1 ([3]; Log [Compound] (M) -9.15521): -5.159
GoB hCB1 ([3]; Log [Compound] (M) -9.15521): -7.419
Gi1 hCB1 ([3]; Log [Compound] (M) -9.61989): -4.621
GoB hCB1 ([3]; Log [Compound] (M) -9.61989): -5.371
Gi1 hCB1 ([3]; Log [Compound] (M) -10.0969): -6.442
GoB hCB1 ([3]; Log [Compound] (M) -10.0969): -8.097
GoB hCB1 ([3]; Log [Compound] (M) -10.5529): -7.003
Gi1 hCB1 ([3]; Log [Compound] (M) -11.0177): -5.524
GoB hCB1 ([3]; Log [Compound] (M) -11.0177): -9.104
Gi1 hCB1 ([3]; Log [Compound] (M) -11.4949): -5.872
GoB hCB1 ([3]; Log [Compound] (M) -11.4949): -8.479
Gi1 hCB1 ([3]; Log [Compound] (M) -11.9208): -6.363
GoB hCB1 ([3]; Log [Compound] (M) -11.9208): -7.454
Gi1 hCB1 ([3]; Log [Compound] (M) -12.3979): -5.935
GoB hCB1 ([3]; Log [Compound] (M) -12.3979): -8.392
Gi1 hCB1 ([3]; Log [Compound] (M) -12.8861): -4.653
GoB hCB1 ([3]; Log [Compound] (M) -12.8861): -8.739
Gi1 hCB1 ([3]; Log [Compound] (M) -13): -5.191
GoB hCB1 ([3]; Log [Compound] (M) -13): -7.871
Gi1 hCB1 ([3]; Log [Compound] (M) cell empty): -4.795
GoB hCB1 ([3]; Log [Compound] (M) cell empty): -4.173
pEC50 [95% CI] ([3]; hCB1 GoB): 5.6 [3.0 – 6.2]
Emax ([3]; read-out: Emax [95% CI], hCB1 Gi1): 49%
Emax ([3]; read-out: Emax [95% CI], hCB1 GoB): 36%
radioligand binding remaining, competition curve (Figure2e), replicate values ([4]; log[drug] -3.643): 3.776 and 13.0342 and 10.5924
radioligand binding remaining, competition curve (Figure2e), replicate values ([4]; log[drug] -4.35655): -5.187 and 0.4808 and -3.246
radioligand binding remaining, competition curve (Figure2e), replicate values ([4]; log[drug] -5.07): 1.22 and 4.986 and -3.564
radioligand binding remaining, competition curve (Figure2e), replicate values ([4]; log[drug] -5.783): 44.8894 and 48.8782 and 38.7216
radioligand binding remaining, competition curve (Figure2e), replicate values ([4]; log[drug] -6.496): 82.7231 and 84.8647 and 75.4685
radioligand binding remaining, competition curve (Figure2e), replicate values ([4]; log[drug] -7.21): 103.471 and 87.6068 and 85.0402
radioligand binding remaining, competition curve (Figure2e), replicate values ([4]; log[drug] -7.923): 98.6842 and 84.2236 and 81.6265
radioligand binding remaining, competition curve (Figure2e), replicate values ([4]; log[drug] -8.636): 102.059 and 98.0413 and 100.669
pKi [95% CI] ([4]; rCB1): 6.16 [5.99 – 6.34]
